The values below come from patent US20100029542A1, “PROTEIN STERILISATION BY RADIATION AND ADDITION OF A STABILISING COMPOSITION” (priority 2006, published 2010).

Read-outs that look alike come from different tables or passages of the source. Where a SMILES comes first, the peptide text is derived from it.

One data set addresses T1, catalase (Bos taurus, UniProt P00432).
T1 construct: Catalase (from bovine liver, Sigma C9322, 2380 U /mg solid); purchased Sigma C9322; host or cells: bovine liver
T1 sequence (P00432 2-527 limits assumed): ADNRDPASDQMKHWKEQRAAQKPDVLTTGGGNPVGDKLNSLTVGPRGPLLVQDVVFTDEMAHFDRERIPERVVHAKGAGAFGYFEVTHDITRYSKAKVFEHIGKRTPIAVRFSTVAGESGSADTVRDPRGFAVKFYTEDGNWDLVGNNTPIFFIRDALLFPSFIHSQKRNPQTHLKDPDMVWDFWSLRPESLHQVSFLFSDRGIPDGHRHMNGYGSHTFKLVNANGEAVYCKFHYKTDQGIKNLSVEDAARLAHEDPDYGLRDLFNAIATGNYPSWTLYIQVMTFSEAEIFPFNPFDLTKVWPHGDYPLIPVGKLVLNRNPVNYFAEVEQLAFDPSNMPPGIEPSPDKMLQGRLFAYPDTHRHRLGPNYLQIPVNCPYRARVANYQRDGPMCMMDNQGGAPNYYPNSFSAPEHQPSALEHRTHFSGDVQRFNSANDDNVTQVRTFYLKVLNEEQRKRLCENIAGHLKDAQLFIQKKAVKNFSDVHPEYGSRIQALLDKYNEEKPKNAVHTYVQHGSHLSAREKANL
Description: Activity recovery of catalase in dry formulations following gamma irradiation. The data set is classed as physicochemical, bovine. As to conditions: for Enzyme activity remaining after gamma-irradiation: catalase 100 μg mL^−1 prior to drying, dry, 25-40 kGy. As for the experimental part: (§1) In each example, an aqueous solution of a protein was prepared with selected additives in an Eppendorf tube or in a glass vial. Water was removed from the formulation by drying under a stream of nitrogen at 30° C. and subsequent incubation at atmospheric pressure in the presence of a dessicant. The Eppendorf tubes or the glass vials were sealed and delivered to an industrial sterilisation service for gamma irradiation, with a dose range typical for sterile medical products. The gamma-irradiated samples were reconstituted on their return and analysed for protein activity or structural integrity. The results were compared with those achieved using control (i.e. non-irradiated) samples.
(§2) The dry samples (approx. 20 μg in an Eppendorf tube) were gamma-irradiated by an industry-standard commercial sterilising service provided by Isotron PLC (Swindon, Wilts, UK), using a Cobalt 60 gamma source at ambient temperature. The radiation dose was in the range of 25-40 kGy.
The original solutions (i.e. solutions prior to drying) contained 100 μg mL^−1 of catalase and typically the total of 100 mM of protective compounds (i.e. 100 mM in case of a single compound, 50 mM+50 mM in case of two compounds, 33.3 mM+33.3 mM+33.3 mM in the case of three compounds etc.). The solutions were dried and gamma irradiated. Following the gamma irradiation, the samples, both pre- and post-gamma irradiated, were assayed for […] activity. This was performed according to the following procedure:
Water was added to the sample to achieve 100 μg mL^−1 of catalase. 100 μL of the solution was added to a mixture of 18 mL of PBS and 2 mL of hydrogen peroxide (30 mM in water) in a 125 mL polypropylene pot and mixed. The resulting mixture was incubated at room temperature precisely for 30 min. In the meantime, the following reagents were mixed in a plastic cuvette for spectrophotometric measurements: • 2.73 mL of citrate/phosphate buffer (0.1 M, pH 5.0) • 100 μL of tetramethylbenzidine (TMB) (3 mg/mL, dissolved in dimethyl sulphoxide (DMSO)) • 100 μL of lactoperoxidase
Following the 30 min incubation period, 70 μL of the catalase containing mixture was added to the cuvette and absorbance was read in approximately 30 s. The results were expressed as percentage recovery, by reference to the absorbance measured in the fresh samples (i.e. prior to incubation at increased temperature).

The conditions of data set [1]: cited from earlier work; for Rate constant k: Table 1, singlet oxygen scavengers, measured in specified solvents.
Another data set has as its target T2, glucose oxidase (Aspergillus niger, UniProt P13006).
T2 construct: purchased Biocatalysts G575P
Put plainly: Activity recovery of glucose oxidase in dry formulations following gamma irradiation. Conditions: glucose oxidase 350 μg mL^−1 prior to drying, dry, 25-40 kGy. The format is physicochemical. As for the experimental part:
as §1, §2
The original solutions (i.e. solutions prior to drying) contained 350 μg mL^−1 of glucose oxidase and typically the total of 100 mM of protective compounds (i.e. 100 mM in case of a single compound, 50 mM+50 mM in case of two compounds, 33.3 mM+33.3 mM+33.3 mM in the case of three compounds etc.). The solutions were dried and gamma irradiated. Following the gamma irradiation, the samples, both pre- and post-gamma irradiated, were assayed for glucose oxidase activity. This was performed according to the following procedure:
Water was added to the sample to achieve 350 μg mL^−1 of glucose oxidase. 50 μL of the solution was added to 50 mL of deionised water. The following solutions were then added: • 10 mL of reagent mix (5 parts of 0.1 M sodium phosphate, pH 6+4 parts 2% w/w starch+1 part of 1 mg/mL lactoperoxidase enzyme); • 5 mL of 100 mM potassium iodide; and • 5 mL of 20% w/w glucose solution.
These were mixed together quickly. Time=0 was counted from the addition of the glucose. After 5 min, 1 ml of 5 M aq. hydrochloric acid was added to stop the reaction. The absorbance was then read at 630 nm using a Unicam UV-visible spectrophotometer (Type: Helios gamma). If the colour intensity was too great to allow an accurate reading, the sample was diluted with a defined volume of deionised water to bring the colour back on scale. The results were expressed as percentage recovery, by reference to the absorbance measured in the pre-gamma irradiation samples.

The target of another data set is T3, human growth hormone (Homo sapiens, UniProt P01241).
T3 construct: purchased National Institute of Biological Standards and Control; further samples on prescription from a GP surgery
Description: Recovery of structural integrity of human growth hormone in dry formulations following gamma irradiation (HPLC). The data set is classed as physicochemical. As to conditions: structural integrity by HPLC, human growth hormone 2.5 mg mL^−1 prior to drying, 25-40 kGy. On the procedure: as §1, §2
Mobile phase was prepared by mixing 71 parts (by volume) of a solution of TRIS (0.05 M, in water adjusted with hydrochloric acid to a pH of 7.5) and 29 parts (by volume) of n-propylalcohol. The mobile phase was filtered prior to its use. The liquid chromatograph (Agilent 1100 series) was equipped with a 214 nm detector and a 4.6×250 mm column (Phenomenex 00G-4167-E0) packed with butylsilyl silica gel with a granulometry of 5 μm and a porosity of 30 nm, maintained at 45° C. The flow rate was maintained at 0.5 mL min^−1. 15 μL of aqueous samples of human growth hormone (typically 1-2.5 mg mL^−1) were injected. Results were expressed as % of peak area corresponding to the gamma irradiated sample with respect to that measured in non-irradiated sample.

Another data set has as its system Sandostatin. Description: Recovery of structural integrity of Sandostatin in dry formulations following gamma irradiation (HPLC). The format is physicochemical. Conditions: structural integrity by HPLC, excipient:Sandostatin weight ratio 10:1, 25-40 kGy. On the procedure: as §1, §2
Mobile phase A was 0.1 M triethylamine adjusted to pH 2.3 with phosphoric acid. Mobile phase B was acetonitrile. The mobile phases were filtered prior to their use. The following linear gradient was used: time 0: 90% A+10% B; time 35 min: 60% A+40% B. The liquid chromatograph (Agilent 1100 series) was equipped with a 214 nm detector, guard column and a 4.6×150 mm C18 column with a granulometry of 5 μm and a porosity of 30 nm, maintained at ambient temperature. The flow rate was maintained at 1.0 mL min^−1. Injection volume was 50 μL (typically sandostatin at 200 μg mL^−1). Results were expressed as % of main peak area (i.e. area of the peak corresponding to intact sandostatin measured in the gamma irradiated sample with respect to that measured in non-irradiated sample of identical composition). A chromatogram of a standard solution of sandostatin was recorded after every 12 samples to ensure that no drift in the position of the major peak had occurred. The control measurements ruled out any ambiguity in interpreting the chromatograms.

Setting [2] is: Table 6, singlet oxygen scavengers, ambient temperature.
Setting [3] is: Table 5, singlet oxygen scavengers, ambient temperature.
Setting [4] is: Table 11, superoxide scavengers.
Where [5] appears, read: Table 10, superoxide scavengers.
[6] abbreviates: Table 12, superoxide scavengers.
Where [7] appears, read: Table 4, prior-art antioxidants, ambient temperature.
The mark [8] stands for this setting: Table 3, prior-art antioxidants, ambient temperature, vs non-irradiated.

T3 sequence (P01241 27-217): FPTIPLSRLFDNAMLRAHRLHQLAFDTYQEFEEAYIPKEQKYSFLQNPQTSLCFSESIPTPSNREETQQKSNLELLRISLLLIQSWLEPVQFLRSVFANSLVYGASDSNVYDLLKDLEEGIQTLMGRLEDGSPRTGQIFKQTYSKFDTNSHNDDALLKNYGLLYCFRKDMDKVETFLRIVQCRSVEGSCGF
T2 sequence (P13006 17-605): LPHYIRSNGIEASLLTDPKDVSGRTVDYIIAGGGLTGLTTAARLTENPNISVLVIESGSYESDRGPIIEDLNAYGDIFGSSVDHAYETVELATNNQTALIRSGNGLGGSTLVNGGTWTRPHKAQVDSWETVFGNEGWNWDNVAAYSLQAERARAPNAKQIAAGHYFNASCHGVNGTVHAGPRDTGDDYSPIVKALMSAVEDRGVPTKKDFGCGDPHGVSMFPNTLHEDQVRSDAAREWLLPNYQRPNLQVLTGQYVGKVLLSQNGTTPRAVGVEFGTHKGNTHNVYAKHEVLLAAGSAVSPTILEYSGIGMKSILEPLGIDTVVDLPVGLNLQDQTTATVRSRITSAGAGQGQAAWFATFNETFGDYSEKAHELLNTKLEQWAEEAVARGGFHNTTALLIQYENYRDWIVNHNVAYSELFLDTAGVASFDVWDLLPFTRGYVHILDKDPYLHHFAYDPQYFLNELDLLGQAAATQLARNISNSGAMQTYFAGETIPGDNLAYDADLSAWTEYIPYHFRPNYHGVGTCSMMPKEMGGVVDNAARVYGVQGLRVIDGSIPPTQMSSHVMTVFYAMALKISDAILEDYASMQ

As for `C[C@H](N)C(=O)O` [Alanine], the results for the “Enzyme activity remaining after gamma-irradiation” value (“Enzyme activity remaining” for short) at catalase (setting [2]) and on glucose oxidase (setting [3]) were 8.8% and 15.3%, respectively. In data set [1], the Rate constant k result is “k = 3.0 × 10^7 L mol^−1 s^−1”. For the same compound, the “Rate of reaction with singlet oxygen” value in data set [1] (Table 5) and in data set [1] (Table 6) was 3e+07 M⁻¹ s⁻¹ throughout.
For the compound `[N-]=[N+]=[N-]` [Azide anion], the Rate constant k entry in data set [1] is “k = 4.5 × 10^8 L mol^−1 s^−1”.
In the case of `O=C(O)CC(O)(CC(=O)O)C(=O)O` [Citrate], the “Structural integrity remaining after gamma-irradiation (HPLC)” value (“Structural integrity remaining” for short) at human growth hormone (setting [4]) was found to be 45.6%. Also, the “Enzyme activity remaining” value is on record as 39.5% on catalase (setting [5]); 32.0% on glucose oxidase (Table 9, superoxide scavengers); 91.8% in the data set with Sandostatin (setting [6]).
Consider `[Cu+2]` [Copper(II) ion], for which the Rate constant k entry in data set [1] is on record as “k = 6.4 × 10^7 L mol^−1 s^−1”.
Regarding `N[C@@H](CS)C(=O)O` [Cysteine anion], the Rate constant k result in data set [1] is on record as “k = 1.5 × 10^8 L mol^−1 s^−1”.
For `CC12CCC(CC1)C(C)(C)O2` [Eucaliptol], the “Compatibility of the compound with catalase” value on catalase (as excipient in the formulation) is “inhibit catalase”. Moreover, on glucose oxidase (Table 13, ozone scavengers), the “Enzyme activity remaining” value is 17.5%.
For `NCC(=O)NCC(=O)O` [Glycylglycine] (H-Gly-Gly-OH), the “Structural integrity remaining” value on human growth hormone (setting [7]) is 47.2%. The “Enzyme activity remaining” value at glucose oxidase (setting [8]) is listed as 20.1%.
Take `N[C@@H](Cc1c[nH]cn1)C(=O)O` [Histidine]: the “Structural integrity remaining” value at human growth hormone (Table 7, singlet oxygen scavengers) was determined as 55.5%. For the same compound, the “Enzyme activity remaining” value stood at 18.3% on catalase (setting [2]); 57.9% at glucose oxidase (setting [3]); 85.0% in the data set on Sandostatin (Table 8, singlet oxygen scavengers). Further, in data set [1], the Rate constant k entry is on record as “k = 4.6 × 10^7 L mol^−1 s^−1”. Moreover, the “Rate of reaction with singlet oxygen” value in data set [1] (Table 5), in data set [1] (Table 6), in data set [1] (Table 7) and in data set [1] (Table 8) was 4.6e+07 M⁻¹ s⁻¹ each time.
In the case of `O=C(O)CC(O)C(=O)O` (stereo not drawn) [Malate], on human growth hormone (setting [4]), the “Structural integrity remaining” value is on record as 52.1%. Besides, the “Enzyme activity remaining” value was determined as 40.9% on catalase (setting [5]); 40.7% at glucose oxidase (Table 9, superoxide scavengers); 87.7% in the data set with Sandostatin (setting [6]).
Turning to `OC[C@@H](O)[C@@H](O)[C@H](O)[C@H](O)CO` [Mannitol], the “Structural integrity remaining” value on human growth hormone (setting [4]) is recorded as 28.3%. Also, the “Enzyme activity remaining” value on catalase (setting [5]) is 36.3%; on glucose oxidase (Table 9, superoxide scavengers) it was 17.2%; with Sandostatin (setting [6]) it was 72.6%.
For the compound `NC(=O)C1=CN([C@@H]2O[C@H](COP(=O)(O)OP(=O)(O)OC[C@H]3O[C@@H](n4cnc5c(N)ncnc54)[C@H](O)[C@@H]3O)[C@@H](O)[C@H]2O)C=CC1` [NADH], the Rate constant k result in data set [1] was “k = 2 × 10^7 L mol^−1 s^−1”.
As for `[Ni+2]` [Nickel (II) ion], the Rate constant k entry in data set [1] was “k = 3.3 × 10^7 L mol^−1 s^−1”.
For the compound `CC(=O)CCCCn1c(=O)c2c(ncn2C)n(C)c1=O` [Pentoxyfylline, reference compound], the “Structural integrity remaining” value at human growth hormone (Table 15, ozone scavenger) turned out to be 46.0%. For the same compound, the “Enzyme activity remaining” value on catalase (Table 14, ozone scavenger) stood at 77.0%; on glucose oxidase (Table 13, ozone scavengers), 36.2%.
For the compound `O=S(=O)(O)c1cc(O)c(O)c(S(=O)(=O)O)c1` [Tiron], on human growth hormone (setting [4]), the “Structural integrity remaining” value was determined as 55.7%. In addition, the “Enzyme activity remaining” value on catalase (setting [5]) came out at 17.9%; on glucose oxidase (Table 9, superoxide scavengers), 27.5%; with Sandostatin (setting [6]), 89.7%.
Turning to `Cc1c(C)c2c(c(C)c1O)CCC(C)(C(=O)O)O2` (stereo not drawn) [Trolox], the “Structural integrity remaining” value on human growth hormone (setting [7]) is reported as 49.6%. For the same compound, on glucose oxidase (setting [8]), the “Enzyme activity remaining” value was 45.9%.
Regarding `Oc1nc(O)c2nc(O)[nH]c2n1` [Urate], the “Structural integrity remaining” value at human growth hormone (setting [7]) worked out at 61.5%. Further, on glucose oxidase (setting [8]), the “Enzyme activity remaining” value is 32.6%.
Silymarine: at human growth hormone (setting [7]), the “Structural integrity remaining” value is on record as 63.0%. Besides, the “Enzyme activity remaining” value at glucose oxidase (setting [8]) was found to be 46.3%.
